Laboratory results as given in PubChem BioAssay (NCI).
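Exposure lasted 48 hours, with cells grown in 96-well plates and compounds tested at five concentrations. The concentration for full growth arrest is given as TGI.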

Assays:
Assay in all cases: inhibition of tumour cell growth, NCI panel, 48 h
SF-295 CNS = tested on: SF-295 CNS
SR leukemia = tested on: SR leukemia
HCT-15 colon = tested on: HCT-15 colon
MCF7 breast = tested on: MCF7 breast
TK-10 renal = tested on: TK-10 renal
MOLT-4 leukemia = tested on: MOLT-4 leukemia
NCI-H522 lung = tested on: NCI-H522 lung
UACC-257 melanoma = tested on: UACC-257 melanoma
CAKI-1 renal = tested on: CAKI-1 renal
M14 melanoma = tested on: M14 melanoma
SN12C renal = tested on: SN12C renal
NCI-H23 lung = tested on: NCI-H23 lung
RPMI-8226 leukemia = tested on: RPMI-8226 leukemia
ACHN renal = tested on: ACHN renal
OVCAR-8 ovarian = tested on: OVCAR-8 ovarian
IGROV1 ovarian = tested on: IGROV1 ovarian
A549 NSCLC = tested on: A549 NSCLC
OVCAR-4 ovarian = tested on: OVCAR-4 ovarian
UO-31 renal = tested on: UO-31 renal
786-0 renal = tested on: 786-0 renal
SW-620 colon = tested on: SW-620 colon
K-562 leukemia = tested on: K-562 leukemia
HCC-2998 colon = tested on: HCC-2998 colon
LOX IMVI melanoma = tested on: LOX IMVI melanoma
RXF 393 renal = tested on: RXF 393 renal
HOP-92 NSCLC = tested on: HOP-92 NSCLC
MDA-MB-231 breast = tested on: MDA-MB-231 breast
SNB-75 CNS = tested on: SNB-75 CNS
HS 578T breast = tested on: HS 578T breast
T-47D breast = tested on: T-47D breast
COLO 205 colon = tested on: COLO 205 colon
KM12 colon = tested on: KM12 colon
SNB-19 CNS = tested on: SNB-19 CNS
SK-MEL-2 melanoma = tested on: SK-MEL-2 melanoma
SK-MEL-28 melanoma = tested on: SK-MEL-28 melanoma
HL-60(TB) leukemia = tested on: HL-60(TB) leukemia
NCI-H460 lung = tested on: NCI-H460 lung
HOP-62 NSCLC = tested on: HOP-62 NSCLC
OVCAR-3 ovarian = tested on: OVCAR-3 ovarian
EKVX NSCLC = tested on: EKVX NSCLC
MALME-3M melanoma = tested on: MALME-3M melanoma
SK-OV-3 ovarian = tested on: SK-OV-3 ovarian
MDA-N = tested on: MDA-N
DU-145 prostate = tested on: DU-145 prostate
NCI/ADR-RES ovarian = tested on: NCI/ADR-RES ovarian
HT29 colon = tested on: HT29 colon
CCRF-CEM leukemia = tested on: CCRF-CEM leukemia
SK-MEL-5 melanoma = tested on: SK-MEL-5 melanoma
MDA-MB-435 = tested on: MDA-MB-435
A498 renal = tested on: A498 renal
SF-539 CNS = tested on: SF-539 CNS
HCT-116 colon = tested on: HCT-116 colon
U251 CNS = tested on: U251 CNS
NCI-H226 lung = tested on: NCI-H226 lung
PC-3 prostate = tested on: PC-3 prostate
OVCAR-5 ovarian = tested on: OVCAR-5 ovarian
SF-268 CNS = tested on: SF-268 CNS
UACC-62 melanoma = tested on: UACC-62 melanoma
BT-549 breast = tested on: BT-549 breast

O=C(NC(O)(C(F)(F)F)C(F)(F)F)c1ccccc1
TGI (SF-295 CNS): > 100 µM
TGI (SR leukemia): > 100 µM
TGI (HCT-15 colon): > 100 µM
TGI (MCF7 breast): > 100 µM
TGI (TK-10 renal): > 100 µM
TGI (MOLT-4 leukemia): > 100 µM
TGI (NCI-H522 lung): > 100 µM
TGI (UACC-257 melanoma): > 100 µM
TGI (CAKI-1 renal): > 100 µM
TGI (M14 melanoma): > 100 µM
TGI (SN12C renal): > 100 µM
TGI (NCI-H23 lung): > 100 µM
TGI (RPMI-8226 leukemia): > 100 µM
TGI (ACHN renal): > 100 µM
TGI (OVCAR-8 ovarian): > 100 µM
TGI (IGROV1 ovarian): > 100 µM
TGI (A549 NSCLC): > 100 µM
TGI (OVCAR-4 ovarian): > 100 µM
TGI (UO-31 renal): > 100 µM
TGI (786-0 renal): > 100 µM
TGI (SW-620 colon): > 100 µM
TGI (K-562 leukemia): > 100 µM
TGI (HCC-2998 colon): > 100 µM
TGI (LOX IMVI melanoma): > 100 µM
TGI (RXF 393 renal): > 100 µM
TGI (HOP-92 NSCLC): > 100 µM
TGI (MDA-MB-231 breast): > 100 µM
TGI (SNB-75 CNS): > 100 µM
TGI (HS 578T breast): > 100 µM
TGI (T-47D breast): > 100 µM
TGI (COLO 205 colon): > 100 µM
TGI (KM12 colon): > 100 µM
TGI (SNB-19 CNS): > 100 µM
TGI (SK-MEL-2 melanoma): > 100 µM
TGI (SK-MEL-28 melanoma): > 100 µM
TGI (HL-60(TB) leukemia): > 100 µM
TGI (NCI-H460 lung): > 100 µM
TGI (HOP-62 NSCLC): > 100 µM
TGI (OVCAR-3 ovarian): > 100 µM
TGI (EKVX NSCLC): > 100 µM
TGI (MALME-3M melanoma): > 100 µM
TGI (SK-OV-3 ovarian): > 100 µM
TGI (MDA-N): > 100 µM
TGI (DU-145 prostate): > 100 µM
TGI (NCI/ADR-RES ovarian): > 100 µM
TGI (HT29 colon): > 100 µM
TGI (CCRF-CEM leukemia): > 100 µM
TGI (SK-MEL-5 melanoma): > 100 µM
TGI (MDA-MB-435): > 100 µM
TGI (A498 renal): > 100 µM
TGI (SF-539 CNS): > 100 µM
TGI (HCT-116 colon): > 100 µM
TGI (U251 CNS): > 100 µM
TGI (NCI-H226 lung): > 100 µM
TGI (PC-3 prostate): > 100 µM
TGI (OVCAR-5 ovarian): > 100 µM
TGI (SF-268 CNS): > 100 µM

COc1cc(O)c2c(c1)OCC1(Cc3cc(OC)c(OC)cc31)C2=O (configuration not stated)
TGI (SF-295 CNS): > 100 µM
TGI (SR leukemia): > 100 µM
TGI (HCT-15 colon): > 100 µM
TGI (MCF7 breast): > 100 µM
TGI (TK-10 renal): > 100 µM
TGI (MOLT-4 leukemia): > 100 µM
TGI (NCI-H522 lung): > 100 µM
TGI (UACC-257 melanoma): > 100 µM
TGI (CAKI-1 renal): > 100 µM
TGI (M14 melanoma): > 100 µM
TGI (SN12C renal): > 100 µM
TGI (NCI-H23 lung): > 100 µM
TGI (RPMI-8226 leukemia): > 100 µM
TGI (ACHN renal): > 100 µM
TGI (OVCAR-8 ovarian): > 100 µM
TGI (IGROV1 ovarian): > 100 µM
TGI (A549 NSCLC): 66.8 µM
TGI (OVCAR-4 ovarian): > 100 µM
TGI (UO-31 renal): > 100 µM
TGI (786-0 renal): > 100 µM
TGI (SW-620 colon): > 100 µM
TGI (K-562 leukemia): > 100 µM
TGI (LOX IMVI melanoma): > 100 µM
TGI (RXF 393 renal): > 100 µM
TGI (HOP-92 NSCLC): > 100 µM
TGI (MDA-MB-231 breast): > 100 µM
TGI (SNB-75 CNS): > 100 µM
TGI (HS 578T breast): > 100 µM
TGI (T-47D breast): 57.2 µM
TGI (UACC-62 melanoma): > 100 µM
TGI (COLO 205 colon): > 100 µM
TGI (KM12 colon): > 100 µM
TGI (SNB-19 CNS): > 100 µM
TGI (SK-MEL-2 melanoma): > 100 µM
TGI (SK-MEL-28 melanoma): > 100 µM
TGI (HL-60(TB) leukemia): > 100 µM
TGI (NCI-H460 lung): > 100 µM
TGI (HOP-62 NSCLC): > 100 µM
TGI (OVCAR-3 ovarian): > 100 µM
TGI (MALME-3M melanoma): > 100 µM
TGI (SK-OV-3 ovarian): > 100 µM
TGI (MDA-N): > 100 µM
TGI (DU-145 prostate): > 100 µM
TGI (NCI/ADR-RES ovarian): > 100 µM
TGI (HT29 colon): > 100 µM
TGI (CCRF-CEM leukemia): > 100 µM
TGI (SK-MEL-5 melanoma): 26.7 µM
TGI (MDA-MB-435): > 100 µM
TGI (A498 renal): > 100 µM
TGI (SF-539 CNS): > 100 µM
TGI (HCT-116 colon): > 100 µM
TGI (U251 CNS): > 100 µM
TGI (NCI-H226 lung): > 100 µM
TGI (PC-3 prostate): > 100 µM
TGI (OVCAR-5 ovarian): > 100 µM
TGI (SF-268 CNS): > 100 µM

O=C1Nc2c(Cl)cc(Cl)cc2C1=O
TGI (SF-295 CNS): 31.8 µM
TGI (SR leukemia): 39.4 µM
TGI (HCT-15 colon): 47.5 µM
TGI (MCF7 breast): 39.6 µM
TGI (TK-10 renal): > 100 µM
TGI (MOLT-4 leukemia): 48.6 µM
TGI (UACC-257 melanoma): 35.1 µM
TGI (CAKI-1 renal): 35.4 µM
TGI (M14 melanoma): 38.6 µM
TGI (SN12C renal): 32.2 µM
TGI (NCI-H23 lung): 48.7 µM
TGI (ACHN renal): > 100 µM
TGI (OVCAR-8 ovarian): 55.8 µM
TGI (IGROV1 ovarian): 50.3 µM
TGI (BT-549 breast): 35.1 µM
TGI (A549 NSCLC): 35.9 µM
TGI (OVCAR-4 ovarian): 33.1 µM
TGI (UO-31 renal): 44.9 µM
TGI (786-0 renal): 39.5 µM
TGI (SW-620 colon): 41.5 µM
TGI (K-562 leukemia): > 100 µM
TGI (HCC-2998 colon): 83.4 µM
TGI (LOX IMVI melanoma): 35.5 µM
TGI (RXF 393 renal): 28.2 µM
TGI (HOP-92 NSCLC): 57.5 µM
TGI (MDA-MB-231 breast): 45.9 µM
TGI (SNB-75 CNS): 28.6 µM
TGI (HS 578T breast): 37.6 µM
TGI (UACC-62 melanoma): 30.2 µM
TGI (COLO 205 colon): 50.8 µM
TGI (KM12 colon): > 100 µM
TGI (SNB-19 CNS): > 100 µM
TGI (SK-MEL-2 melanoma): 29.7 µM
TGI (SK-MEL-28 melanoma): 35.4 µM
TGI (HL-60(TB) leukemia): 26.7 µM
TGI (NCI-H460 lung): 47.6 µM
TGI (HOP-62 NSCLC): 40.4 µM
TGI (OVCAR-3 ovarian): 52.5 µM
TGI (EKVX NSCLC): 29.6 µM
TGI (MALME-3M melanoma): 7.88 µM
TGI (SK-OV-3 ovarian): > 100 µM
TGI (MDA-N): 21.8 µM
TGI (NCI/ADR-RES ovarian): 54.5 µM
TGI (HT29 colon): > 100 µM
TGI (CCRF-CEM leukemia): 72.9 µM
TGI (SK-MEL-5 melanoma): 28.8 µM
TGI (MDA-MB-435): 15.2 µM
TGI (A498 renal): 53.4 µM
TGI (SF-539 CNS): 34.4 µM
TGI (HCT-116 colon): 40.5 µM
TGI (U251 CNS): 55.2 µM
TGI (NCI-H226 lung): 46.6 µM
TGI (PC-3 prostate): > 100 µM
TGI (OVCAR-5 ovarian): 40.7 µM
